# Measured values published in ChEMBL document CHEMBL1125412, “NG-allyl- and NG-cyclopropyl-L-arginine: two novel inhibitors of macrophage nitric oxide synthase” (J Med Chem, 1992).
# Columns and labels:
# [1] = Compound was tested for the inhibition of inducible murine macrophage expressed as inactivation constant
# [2] = Compound was tested for the inhibition of inducible murine macrophage nitric oxide(NO) synthase, activity expressed as inhibitory constant
# [3] = Compound was tested for the inhibition of inducible murine macrophage nitric oxide(NO) synthase
K inact [1] [min⁻¹],Ki [2] [µM],Ki [3] [µM],SMILES
0.05,4.2,–,CNC(=N)NCCC[C@H](N)C(=O)O [TILARGININE]
0.026,3.4,2.1,C=CC/N=C(/N)NCCC[C@H](N)C(=O)O [5-N-ALLYL-ARGININE]
–,–,7.7,N=C(NCCC[C@H](N)C(=O)O)NC1CC1
